{"source": "paper PMC11971306", "about": "“Enzymatic Birch reduction via hydrogen atom transfer at [4Fe-4S]-OH2 and [8Fe-9S] clusters” (Nature Communications, 2025)", "key": {"BzdNO [1]": {"target": "T1, BzdNO (Azoarcus sp. CIB, UniProt Z9PSW1D6O9)", "T1 construct": "BzdN + BzdO heterodimer (catalytic dimer of class I benzoyl-CoA reductase, BZD type) without BzdPQ; C-terminal Strep-tag on BzdO; anaerobic purification; about 95 kDa theoretical, 107 kDa by SEC; BzdN to residue 376, BzdO to residue 442 (domain borders); with Benzoyl-CoA reductase subunit BzdN", "T1 sequence (Z9PSW1D6O9 1-437)": "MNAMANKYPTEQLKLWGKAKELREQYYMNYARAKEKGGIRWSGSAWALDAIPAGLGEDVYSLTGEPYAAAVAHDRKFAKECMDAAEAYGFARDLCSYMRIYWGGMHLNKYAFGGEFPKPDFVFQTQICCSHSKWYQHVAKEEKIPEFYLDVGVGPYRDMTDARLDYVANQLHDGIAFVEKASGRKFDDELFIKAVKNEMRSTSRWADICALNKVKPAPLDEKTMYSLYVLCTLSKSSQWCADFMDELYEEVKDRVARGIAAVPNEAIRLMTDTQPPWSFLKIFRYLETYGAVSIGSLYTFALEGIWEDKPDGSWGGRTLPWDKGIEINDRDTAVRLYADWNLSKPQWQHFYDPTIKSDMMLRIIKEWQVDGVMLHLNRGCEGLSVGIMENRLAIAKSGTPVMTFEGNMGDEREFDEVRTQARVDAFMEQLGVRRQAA", "T1 sequence (Z9U3P4NCS5 1-379 partner)": "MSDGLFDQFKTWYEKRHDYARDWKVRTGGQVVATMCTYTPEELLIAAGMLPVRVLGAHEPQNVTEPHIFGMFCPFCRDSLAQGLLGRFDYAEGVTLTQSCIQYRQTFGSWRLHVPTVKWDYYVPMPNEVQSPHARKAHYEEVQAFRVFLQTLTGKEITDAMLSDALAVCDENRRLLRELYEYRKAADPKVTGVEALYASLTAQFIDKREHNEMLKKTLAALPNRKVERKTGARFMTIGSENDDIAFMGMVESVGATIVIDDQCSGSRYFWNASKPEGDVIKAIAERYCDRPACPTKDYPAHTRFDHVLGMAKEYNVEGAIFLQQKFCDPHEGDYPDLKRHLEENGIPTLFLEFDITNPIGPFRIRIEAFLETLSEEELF", "assay": "X-ray crystallography, no ligand added", "assay_type": "binding", "details": "weakly occupied, co-purified; partially CoA-free state"}, "BzdNO [2]": {"target": "T1, BzdNO", "assay": "rearomatization of dienoyl-CoA to benzoyl-CoA, UPLC", "assay_type": "biochemical", "details": "artificial electron acceptor 0.5 mM; 0.2 mM dienoyl-CoA, pH 8.8, 30 °C, anaerobic"}, "BzdNO [3]": {"target": "T1, BzdNO", "assay": "X-ray crystallography, co-crystal; also turnover in reverse reaction", "assay_type": "binding", "details": "5 mM compound, pH 7.5, anaerobic; non-covalent; same site as benzoyl-CoA; substrate of the reverse, viologen-dependent rearomatization"}, "BzdNO [4]": {"target": "T1, BzdNO", "assay": "X-ray crystallography, co-crystal", "assay_type": "binding", "details": "1.4 Å; 5 mM compound, pH 7.5, anaerobic; non-covalent; active site channel of BzdO in front of [4Fe-4S]-OH2 cluster"}}}
{"smiles": "CC(C)(COP(=O)(O)OP(=O)(O)OC[C@H]1O[C@@H](n2cnc3c(N)ncnc32)[C@H](O)[C@@H]1OP(=O)(O)O)[C@@H](O)C(=O)NCCC(=O)NCCS", "note": "[CoA]", "values": [{"measurement": "X-ray crystallography, no ligand added", "setting": "BzdNO [1]", "result": "appears to contain besides several solvent molecules a weakly occupied CoA ligand"}]}
{"smiles": "C[n+]1ccc(-c2cc[n+](C)cc2)cc1", "note": "[methyl viologen]", "values": [{"measurement": "rearomatization of dienoyl-CoA to benzoyl-CoA, UPLC", "setting": "BzdNO [2]", "result": "methyl viologen-dependent rearomatization of dienoyl-CoA to BzCoA"}]}
{"smiles": "CC(C)(COP(=O)(O)OP(=O)(O)OC[C@H]1O[C@@H](n2cnc3c(N)ncnc32)[C@H](O)[C@@H]1OP(=O)(O)O)[C@@H](O)C(=O)NCCC(=O)NCCSC(=O)C1=CCCC=C1", "note": "[dienoyl-CoA, cyclohexa-1,5-diene-1-carbonyl-CoA]", "values": [{"measurement": "X-ray crystallography, co-crystal; also turnover in reverse reaction", "setting": "BzdNO [3]", "result": "BzdNO in complex with the product dienoyl-CoA reveals the identical binding mode as the substrate"}]}
{"smiles": "CC(C)(COP(=O)(O)OP(=O)(O)OC[C@H]1O[C@@H](n2cnc3c(N)ncnc32)[C@H](O)[C@@H]1OP(=O)(O)O)[C@@H](O)C(=O)NCCC(=O)NCCSC(=O)c1ccccc1", "note": "[benzoyl-CoA]", "values": [{"measurement": "X-ray crystallography, co-crystal", "setting": "BzdNO [4]", "result": "determined in a BzCoA bound (pdb 8SO2), dienoyl-CoA bound (pdb 8S1T)"}]}
